Columns and labels:
HL-60 [1] = experiment: Growth inhibition of human HL60 cells at 40 uM after 48 hrs by MTS assay relative to control; format: functional; details: HL-60, 48 h, read-out: GI
SMMC-7721 [2] = experiment: Growth inhibition of human SMMC7721 cells at 40 uM after 48 hrs by MTS assay relative to control; format: functional; details: SMMC-7721, 48 h, read-out: GI
A549 [3] = experiment: Cytotoxicity against human A549 cells after 48 hrs by MTS assay; format: functional, cell-based; details: A549, 48 h
SW480 [4] = experiment: Growth inhibition of human SW480 cells at 40 uM after 48 hrs by MTS assay relative to control; format: functional; details: SW480, 48 h, read-out: GI
SMMC-7721 [5] = experiment: Cytotoxicity against human SMMC7721 cells after 48 hrs by MTS assay; format: functional, cell-based; details: SMMC-7721, 48 h
MCF7 [6] = experiment: Growth inhibition of human MCF7 cells at 40 uM after 48 hrs by MTS assay relative to control; format: functional; details: MCF7, 48 h, read-out: GI
SW480 [7] = experiment: Cytotoxicity against human SW480 cells after 48 hrs by MTS assay; format: functional, cell-based; details: SW480, 48 h
HL-60 [8] = experiment: Cytotoxicity against human HL60 cells after 48 hrs by MTS assay; format: functional, cell-based; details: HL-60, 48 h
A549 [9] = experiment: Growth inhibition of human A549 cells at 40 uM after 48 hrs by MTS assay relative to control; format: functional; details: A549, 48 h, read-out: GI
MCF7 [10] = experiment: Cytotoxicity against human MCF7 cells after 48 hrs by MTS assay; format: functional, cell-based; details: MCF7, 48 h

Structure (SMILES) | inhibition of growth at 40 µM (HL-60 [1]) [%] | inhibition of growth at 40 µM (SMMC-7721 [2]) [%] | IC50 (A549 [3]) [µM] | inhibition of growth at 40 µM (SW480 [4]) [%] | IC50 (SMMC-7721 [5]) [µM] | inhibition of growth at 40 µM (MCF7 [6]) [%] | IC50 (SW480 [7]) [µM] | IC50 (HL-60 [8]) [µM] | inhibition of growth at 40 µM (A549 [9]) [%] | IC50 (MCF7 [10]) [µM]
COc1cc(O)c2c(=O)cc(Oc3ccc(O)cc3)oc2c1C[C@@H](O)C(C)(C)O | > 50 | > 50 | > 10 | > 50 | > 10 | > 50 | > 10 | > 10 | > 50 | > 10
C=C(C)C(O)Cc1c(O)cc(O)c2c(=O)cc(Oc3ccc(O)cc3)oc12 (stereo not given) | > 50 | > 50 | > 10 | > 50 | > 10 | > 50 | > 10 | > 10 | > 50 | > 10
CC(C)=CCc1cc(Oc2cc(=O)c3c(O)cc(O)c(CC=C(C)C)c3o2)ccc1O | > 50 | > 50 | > 10 | > 50 | > 10 | > 50 | > 10 | > 10 | > 50 | > 10
CC(C)=CCc1cc(-c2cc(=O)c3c(O)cc(O)c(CC=C(C)C)c3o2)cc(CC=C(C)C)c1O | > 50 | > 50 | 7.1 | > 50 | > 10 | > 50 | 5.1 | 4.3 | > 50 | 5.4
CC(=O)O[C@H]1C(=O)[C@@]2(C)[C@H]([C@H](OC(=O)c3ccccc3)[C@]3(O)C[C@H](OC(=O)[C@H](O)[C@@H](NC(=O)c4ccccc4)c4ccccc4)C(C)=C1C3(C)C)[C@]1(OC(C)=O)CO[C@@H]1C[C@@H]2O [PACLITAXEL] | – | – | < 0.008 | – | < 0.008 | – | < 0.008 | < 0.008 | – | < 0.008
COc1ccc(-c2oc3c(c(O)cc4oc(C(C)(C)O)cc43)c(=O)c2O[C@@H]2O[C@@H](C)[C@H](O)[C@@H](O)[C@H]2O[C@@H]2O[C@@H](C)[C@H](O)[C@@H](O)[C@H]2O)cc1 | > 50 | > 50 | > 10 | > 50 | > 10 | > 50 | > 10 | > 10 | > 50 | > 10
COc1cc(O)c2c(=O)cc(Oc3ccc(O)cc3)oc2c1CC=C(C)C | > 50 | > 50 | > 10 | > 50 | > 10 | > 50 | > 10 | > 10 | > 50 | > 10
CC(C)=CCc1cc(Oc2cc(=O)c3c(O)cc(O)c(CC=C(C)C)c3o2)cc(CC=C(C)C)c1O | > 50 | > 50 | > 10 | > 50 | > 10 | > 50 | > 10 | > 10 | > 50 | > 10
CC(C)=CCc1c(O)cc(O)c2c(=O)cc(Oc3ccc(O)cc3)oc12 | > 50 | > 50 | > 10 | > 50 | > 10 | > 50 | > 10 | > 10 | > 50 | > 10
